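96-well plates; 48 h exposure; 5 concentrations. Endpoints by linear interpolation between flanking doses. Not reached: highest tested concentration assigned. TGI is the concentration that stops growth completely.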
Assays:
Test in all cases: NCI-60 cell line screen, 48 h
SR leukemia = test system: SR leukemia
A498 renal = test system: A498 renal
NCI-H522 lung = test system: NCI-H522 lung
SK-MEL-5 melanoma = test system: SK-MEL-5 melanoma
HOP-92 NSCLC = test system: HOP-92 NSCLC
MDA-MB-435 = test system: MDA-MB-435
SW-620 colon = test system: SW-620 colon
COLO 205 colon = test system: COLO 205 colon
HCT-15 colon = test system: HCT-15 colon
SNB-19 CNS = test system: SNB-19 CNS
U251 CNS = test system: U251 CNS
LOX IMVI melanoma = test system: LOX IMVI melanoma
KM12 colon = test system: KM12 colon
RXF 393 renal = test system: RXF 393 renal
HL-60(TB) leukemia = test system: HL-60(TB) leukemia
RPMI-8226 leukemia = test system: RPMI-8226 leukemia
NCI-H23 lung = test system: NCI-H23 lung
PC-3 prostate = test system: PC-3 prostate
SK-MEL-2 melanoma = test system: SK-MEL-2 melanoma

| Structure (SMILES) | TGI (SR leukemia) [µM] | TGI (A498 renal) [µM] | TGI (NCI-H522 lung) [µM] | TGI (SK-MEL-5 melanoma) [µM] | TGI (HOP-92 NSCLC) [µM] | TGI (MDA-MB-435) [µM] | TGI (SW-620 colon) [µM] | TGI (COLO 205 colon) [µM] | TGI (HCT-15 colon) [µM] | TGI (SNB-19 CNS) [µM] | TGI (U251 CNS) [µM] | TGI (LOX IMVI melanoma) [µM] | TGI (KM12 colon) [µM] | TGI (RXF 393 renal) [µM] | TGI (HL-60(TB) leukemia) [µM] | TGI (RPMI-8226 leukemia) [µM] | TGI (NCI-H23 lung) [µM] | TGI (PC-3 prostate) [µM] | TGI (SK-MEL-2 melanoma) [µM] |
| --- | --- | --- | --- | --- | --- | --- | --- | --- | --- | --- | --- | --- | --- | --- | --- | --- | --- | --- | --- |
| COc1ccc(NC(C)=O)cc1N1C(=O)/C(=C\c2ccccc2)SC1c1cc(OC)c(OC)c(OC)c1 (stereo not drawn) | > 100 | > 100 | 35.4 | 37 | > 100 | > 100 | > 100 | > 100 | 58.8 | > 100 | > 100 | 34.5 | 35.8 | > 100 | 81 | > 100 | > 100 | > 100 | > 100 |
| Cc1cc2nc(C=C(C(F)(F)F)C(F)(F)F)sc2cc1C | 13.2 | 28.5 | 1.01 | 8.77 | 16.2 | 7.07 | 10.7 | 13.7 | 8.91 | 9.89 | 4.21 | 4.99 | 4.41 | 3.68 | 3.86 | 1.41 | 3.5 | 4.98 | 5.27 |
| O=c1[nH]c(N/N=C\C(=N/Nc2nc3ccccc3c(=O)[nH]2)C(O)C(O)C(O)CO)nc2ccccc12 (stereo not drawn) | > 100 | > 100 |  | > 100 | > 100 | > 100 | > 100 | > 100 | > 100 | > 100 | > 100 | > 100 | > 100 |  | > 100 | > 100 | > 100 | > 100 | > 100 |
| C/C=C/C=C\C=C/C(O)C(C)C(CCC(C)C1OC(=O)C=CC1C)OP(=O)(O)O (stereo not drawn) | 0.511 | 0.404 | 2.89 | 1.84 | 0.881 | 0.773 | 1.67 | 0.788 | 1.97 | 1.99 | 2.5 | 1.09 | 1.16 | 1.38 | 0.17 | 0.491 | 4.83 | 0.549 | 2.32 |
| CC(=O)Nc1cccc(N2C(=O)/C(=C\c3cccc(Oc4ccccc4)c3)S(=O)(=O)C2c2ccccc2)c1 (stereo not drawn) | 58.3 | > 100 | > 100 | > 100 | > 100 | > 100 | > 100 | > 100 | > 100 | > 100 | > 100 | > 100 | > 100 | > 100 | 50.4 | > 100 | > 100 | > 100 | > 100 |
| C=CCC1(Sc2ccccn2)Sc2ccc3ccccc3c2-c2c(ccc3ccccc23)S1 | > 100 | > 100 | > 100 | > 100 | > 100 | > 100 | > 100 | > 100 | > 100 | > 100 | > 100 | > 100 | > 100 | > 100 | > 100 |  | > 100 | > 100 | > 100 |
| CC(=O)NC(Cc1ccccc1)NC(=O)O (stereo not drawn) | > 100 | > 100 | > 100 | > 100 | > 100 | > 100 | > 100 | > 100 | > 100 | > 100 | > 100 | > 100 | > 100 | > 100 | > 100 | > 100 | > 100 | > 100 | > 100 |
| O=c1cc(NNCc2ccccc2)[nH]c(=O)[nH]1 | > 100 | > 100 |  | > 100 | > 100 | > 100 | > 100 | > 100 | > 100 | > 100 | > 100 | > 100 | > 100 | > 100 | > 100 | > 100 | > 100 | > 100 |  |
| CCOC(=O)Cc1nnc2n(-c3ccccc3)c(=O)c3ccccc3n12 | > 100 | > 100 | > 100 | > 100 | > 100 | > 100 | > 100 | > 100 | > 100 | > 100 | > 100 | > 100 | > 100 | > 100 | > 100 |  | > 100 | > 100 | > 100 |
| O=S1(=O)c2ccccc2C(Nc2ccccc2)N1c1ccccc1 (stereo not drawn) | > 100 | > 100 | 67.9 | > 100 | > 100 | > 100 | > 100 |  | > 100 |  | > 100 | > 100 | > 100 | > 100 | > 100 | > 100 | > 100 | > 100 | > 100 |
| C=C(C)[C@@H]1CCC2=C[C@H](C/C(C)=C\C3=CC(C)=C(O3)[C@H]1O)OC2=O | > 100 | > 100 | > 100 | > 100 | > 100 | > 100 | > 100 | > 100 | > 100 | > 100 | > 100 | > 100 | > 100 | > 100 | > 100 | > 100 |  | > 100 | > 100 |
| CCOC(=O)CC1(Cc2ccc(OCc3ccccc3)cc2)C(=O)OC(c2ccccc2)N1C(=O)c1ccccc1 (stereo not drawn) | > 100 |  | > 100 | > 100 | > 100 | > 100 | > 100 | > 100 | > 100 | > 100 | > 100 | > 100 | > 100 | > 100 | > 100 | > 100 | > 100 | > 100 | > 100 |

Source: PubChem BioAssay (NCI)
